Source: US7456292B2, “Hydroxamic acid-containing amino acid derivatives” (Bexel Pharmaceuticals, Inc., priority 2005, dated 2008)
Read-outs that look alike come from different tables or passages of the source.

Assays:
IL-12 = IL-12 secretion following LPS stimulation of mouse spleenic macrophages; type: cell-based
From the text: Compound 6 of this class inhibited IL-12 production in mouse splenic macrophages stimulated with LPS for 72 hrs.

TNF-α [1] = test: LPS induced sepsis model in mice, serum TNF-α; type: in vivo; details: Mus musculus; SW mice, oral 50 mg/kg body weight one hour before LPS, serum after 90 min
Method: (§1) SW mice were orally treated with vehicle, dexamethasone (5 mg/kg) and compounds at a dose of 50 mg/kg body weight one hour before LPS injection (10 μg/mouse, ip) and blood was collected after 90 min and measured serum TNF-α and IL-6 levels by ELISA.

IL-6 [2] = test: LPS induced sepsis model in mice, serum IL-6; type: in vivo; details: Mus musculus; SW mice, oral 50 mg/kg body weight one hour before LPS, serum after 90 min
Method: as §1

MMP-1 = target: T1, MMP-1 (Homo sapiens, UniProt P03956); test: MMP-1 enzyme inhibition; type: biochemical
T1 construct: purchased Calbiochem 444208; host or cells: human rheumatoid synovial fibroblast (natural source)
T1 sequence (P03956 100-469): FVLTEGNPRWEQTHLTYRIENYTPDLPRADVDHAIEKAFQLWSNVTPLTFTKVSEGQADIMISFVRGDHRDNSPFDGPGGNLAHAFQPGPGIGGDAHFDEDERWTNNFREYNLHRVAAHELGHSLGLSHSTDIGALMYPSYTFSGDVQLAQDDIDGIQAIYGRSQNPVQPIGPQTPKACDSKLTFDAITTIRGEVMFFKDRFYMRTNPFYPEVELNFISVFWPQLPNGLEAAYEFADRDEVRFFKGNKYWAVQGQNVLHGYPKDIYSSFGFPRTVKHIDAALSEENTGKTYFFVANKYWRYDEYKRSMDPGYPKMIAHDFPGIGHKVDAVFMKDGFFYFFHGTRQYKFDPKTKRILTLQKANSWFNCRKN
Method: The enzyme MMP-1 (interstitial collagenase; EC 3.4.24.7, human rheumatoid synovial fibroblast, Calbiochem Cat. 444208) is used. MMP-1 is first activated with APMA for 60 minutes at 37° C. Test compound and/or vehicle is then preincubated for 60 minutes at 37° C. with the active enzyme ([…]) in a reaction mixture containing 50 mM MOPS (pH 7.2), 10 mM CaCl2 and 10 μM ZnCl2. The reaction is initiated by addition of Mca-Pro-Leu-Gly-Leu-Dpa-Ala-Arg-NH2 (SEQ. ID NO. 1) (4 μM) and incubated for 120 minutes at 37° C. The N-terminal protecting group Mca is 7-methoxycoumarin-4-yl acetyl. The amino acid Dpa is N^3-(2,4-dinitrophenyl)-L-diaminopropanoyl. Enzyme activity is determined spectrofluorometrically by measuring the formation of fluorescent Mca-Pro-Leu-Gly (SEQ. ID NO. 2). Compounds are screened at 10 μM.

TNF-α [3] = test: LPS induced TNF-α in hPBMC; type: cell-based; details: Homo sapiens; hPBMC, 10 μM, LPS 1 μg/mL 24 hours; * average of two experiments; read-out: Inhibition (%) TNF-α
Method: (§2) Human PBMC monocyte cells were cultured and incubated with compounds at different concentrations. Cells were then challenged with lipopolysaccharides (LPS) at a concentration of (1 μg/mL) for 24 hours. Cell supernatants were then analyzed for the presence of TNF-α, IL-6 and IL-1β cytokines by antibody directed enzyme-linked immunoassay. Dexamethasone was used as a positive control in the experiments.

T cell proliferation = test: Inhibition of T cell proliferation; type: cell-based, mice; details: Mus musculus, T-cell, 10 μM
Method: SJL mice were immunized with keyhole limpet hemocyanin (KLH) in complete Freund's adjuvant (CFA). 12 days later regional lymph nodes were isolated and a proliferative response to KLH in the presence or absence of drug was performed (in presence of 3H thymidine). The results are expressed at Stimulation index (CPM+antigen/CPM no antigen). Similarly, mitogen induced concanavalin A (CON-A), IL-4, IL-2 induced T cell proliferation was measured in presence of compounds are shown in Table VI.

IL-1β = test: LPS induced IL-1β in hPBMC; type: cell-based; details: Homo sapiens, LPS 1 μg/mL 24 hours
Method: as §2

MMP-9 = target: T2, MMP-9 (Homo sapiens, UniProt P14780); test: MMP-9 enzyme inhibition; type: biochemical
T2 construct: purchased Calbiochem PF024-5UG
Method: The enzyme MMP-9 (gelatinase B; EC 3.4.24.35, human recombinant, Calbiochem Cat. PF024-5UG) is used. MMP-9 is first activated with APMA for 60 minutes at 37° C. Test compound and/or vehicle is then preincubated for 60 minutes at 37° C. with the active enzyme (11 nM) in a reaction mixture containing 50 mM MOPS (pH 7.2), 10 mM CaCl2 and 10 μM ZnCl2. The reaction is initiated by addition of 4 μM Mca-Pro-Leu-Gly-Leu-Dpa-Ala-Arg-NH2 (SEQ. ID NO. 1) and incubated for 120 minutes at 37° C. Enzyme activity is determined spectrofluorometrically by measuring the formation of fluorescent Mca-Pro-Leu-Gly (SEQ. ID NO. 2). Compounds are screened at 10 μM.

Human recombinant TACE = target: T3, Human recombinant TACE (Homo sapiens, UniProt P78536); test: TACE enzyme inhibition; type: biochemical
T3 construct: purchased R&D System 930-ADB; host or cells: Sf21 cells
From the text: Tumor necrosis factor-α converting enzyme (TACE/ADAM-17) is responsible for the release of TNF-α, a potent proinflammatory cytokine associated with many chronic debilitating diseases such as rheumatoid arthritis and multiple sclerosis. TNF-α also induces angiogenesis, promotes fibroblast proliferation and can combine with receptors on selected tumor cells to induce cell lysis. TACE is also implicated in amyloid precursor protein secretion. Human recombinant TACE expressed in Sf21 cells (R&D System, 930-ADB) is used. Test compound and/or vehicle is incubated with the enzyme (25 ng/ml) and 10 μM Mca-P-L-A-Q-A-V-Dpa-R-S-S-S-R-NH2 (SEQ. ID NO. 3) in Modified Tris-buffer pH 9.0 for 30 minutes at 25° C. Enzyme activity is determined spectrofluorimetrically by measuring the formation of fluorescent Mca-P-L-A-Q-A-NH2 (SEQ. ID NO. 4). Compounds are screened at 10 μM.

IL-6 [4] = test: LPS induced IL-6 in hPBMC; type: cell-based; details: Homo sapiens, LPS 1 μg/mL 24 hours
Method: as §2

nitric oxide = test: Nitric oxide secretion following LPS stimulation of mouse spleenic macrophages; type: cell-based; details: Macrophage, LPS stimulated mouse spleenic macrophages, read-out: Mice Spleen Cells (% Inhibition) NO
[5] = system: Collagen Induced Arthritis Model; test: Collagen induced arthritis model; type: in vivo; details: male DBA/1 Lac mice, oral 50 mg/kg daily
Method: Arthritis induced in male DBA/1 Lac mice with bovine collagen (100 μg/mouse). Booster dose was given on Day 21 and started treatment when clinical score was about 2. […] Dexamethasone was kept as positive control. Severity of each paw score was defined from 0=no erythma to 4=severe arthritis for the swollen paws with a maximum possible score of 16 for 4 paws (4×4) in one animal.

TNF-α [6] = test: TNF-α secretion following LPS stimulation of mouse spleenic macrophages; type: cell-based; details: Macrophage, LPS stimulated mouse spleenic macrophages, read-out: Mice Spleen Cells (% Inhibition) TNF-α
TNF-α [7] = test: LPS induced TNF-α in THP-1 monocytic cells; type: cell-based; details: Homo sapiens, LPS 1 μg/mL 24 hours
Method: as §2, with “THP-1” for “PBMC”, “TNF-α” for “TNF-α, IL-6 and IL-1β”, “immunoassay from R & D System, Minneapolis, USA.” for “immunoassay. Dexamethasone was used as a positive control in the experiments.”

[8] = target: T4, Phosphodiesterase type-3 (PDE3) (Homo sapiens, UniProt Q14432); test: PDE-3 enzyme inhibition; type: biochemical
T4 construct: from tissue; host or cells: human platelets

[9] = system: Phosphodiesterase type 4 (PDE4); test: PDE-4 enzyme inhibition; type: biochemical, human

T2 sequence (P14780 107-707 limits assumed): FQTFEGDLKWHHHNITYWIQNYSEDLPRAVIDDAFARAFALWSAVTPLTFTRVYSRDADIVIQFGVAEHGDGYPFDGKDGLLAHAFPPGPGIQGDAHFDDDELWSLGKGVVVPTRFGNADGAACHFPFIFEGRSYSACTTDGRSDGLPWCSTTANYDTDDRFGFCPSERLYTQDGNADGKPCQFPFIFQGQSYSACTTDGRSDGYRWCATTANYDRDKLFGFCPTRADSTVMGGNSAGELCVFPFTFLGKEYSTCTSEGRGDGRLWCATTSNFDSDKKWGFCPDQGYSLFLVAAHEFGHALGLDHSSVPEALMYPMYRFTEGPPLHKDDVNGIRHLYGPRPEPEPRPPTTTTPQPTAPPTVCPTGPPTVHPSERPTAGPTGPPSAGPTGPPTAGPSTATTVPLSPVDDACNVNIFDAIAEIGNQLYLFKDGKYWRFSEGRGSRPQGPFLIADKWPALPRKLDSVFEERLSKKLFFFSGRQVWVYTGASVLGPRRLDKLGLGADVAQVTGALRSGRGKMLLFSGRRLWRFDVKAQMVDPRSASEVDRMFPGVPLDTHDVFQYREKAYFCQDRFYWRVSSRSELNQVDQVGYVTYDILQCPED
T3 sequence (P78536 215-671 limits assumed): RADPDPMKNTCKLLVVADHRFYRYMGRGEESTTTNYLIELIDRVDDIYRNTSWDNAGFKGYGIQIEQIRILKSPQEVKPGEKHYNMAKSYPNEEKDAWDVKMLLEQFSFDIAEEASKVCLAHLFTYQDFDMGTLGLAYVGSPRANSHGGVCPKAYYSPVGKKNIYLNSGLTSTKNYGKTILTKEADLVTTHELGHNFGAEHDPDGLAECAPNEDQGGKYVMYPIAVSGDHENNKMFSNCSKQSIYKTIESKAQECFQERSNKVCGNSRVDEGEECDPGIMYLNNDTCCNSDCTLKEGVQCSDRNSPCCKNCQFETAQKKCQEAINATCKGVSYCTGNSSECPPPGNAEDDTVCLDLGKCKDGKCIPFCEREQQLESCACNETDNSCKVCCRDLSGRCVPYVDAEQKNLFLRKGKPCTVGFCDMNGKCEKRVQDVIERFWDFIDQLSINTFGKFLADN
T4 sequence (Q14432 whole entry): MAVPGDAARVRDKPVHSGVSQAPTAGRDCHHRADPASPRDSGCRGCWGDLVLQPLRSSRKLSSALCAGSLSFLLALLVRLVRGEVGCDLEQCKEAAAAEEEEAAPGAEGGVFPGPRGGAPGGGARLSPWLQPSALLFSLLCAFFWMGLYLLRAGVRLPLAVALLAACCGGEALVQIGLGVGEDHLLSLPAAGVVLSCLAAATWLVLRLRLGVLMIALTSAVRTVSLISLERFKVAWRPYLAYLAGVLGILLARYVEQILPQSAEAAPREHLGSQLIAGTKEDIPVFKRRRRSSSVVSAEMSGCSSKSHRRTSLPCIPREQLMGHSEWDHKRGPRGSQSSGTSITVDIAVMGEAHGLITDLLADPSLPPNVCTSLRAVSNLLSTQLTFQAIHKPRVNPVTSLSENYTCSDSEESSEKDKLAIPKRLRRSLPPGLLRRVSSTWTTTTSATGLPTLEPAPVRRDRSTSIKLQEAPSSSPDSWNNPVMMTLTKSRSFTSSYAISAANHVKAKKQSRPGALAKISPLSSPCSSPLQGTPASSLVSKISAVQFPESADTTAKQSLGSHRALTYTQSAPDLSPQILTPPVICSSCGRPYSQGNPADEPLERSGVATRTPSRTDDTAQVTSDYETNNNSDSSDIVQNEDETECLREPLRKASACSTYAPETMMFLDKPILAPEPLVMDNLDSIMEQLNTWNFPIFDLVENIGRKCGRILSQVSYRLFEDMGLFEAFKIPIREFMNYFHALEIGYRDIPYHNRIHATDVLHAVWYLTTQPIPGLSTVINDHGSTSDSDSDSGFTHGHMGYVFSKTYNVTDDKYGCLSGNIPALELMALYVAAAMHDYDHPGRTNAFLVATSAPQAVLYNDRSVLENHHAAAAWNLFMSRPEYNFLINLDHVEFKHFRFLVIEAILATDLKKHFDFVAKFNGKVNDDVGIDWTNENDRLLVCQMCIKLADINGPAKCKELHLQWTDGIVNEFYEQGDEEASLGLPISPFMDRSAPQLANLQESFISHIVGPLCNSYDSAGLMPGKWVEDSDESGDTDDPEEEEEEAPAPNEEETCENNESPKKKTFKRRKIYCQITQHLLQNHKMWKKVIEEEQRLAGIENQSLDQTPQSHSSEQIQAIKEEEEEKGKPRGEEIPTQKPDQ

inhibition at 10 µM (MMP-1): 12% | inhibition at 10 µM (MMP-9): < 0% | inhibition at 10 µM (Human recombinant TACE): 15% | inhibition at 10 µM [8]: 3% | Inhibition at 10 μM (%) PDE-4 [9]: 4%
SMILES: Cl.NC(Cc1ccc(Oc2ccc(C(=O)NO)cc2)cc1)C(=O)OCc1ccccc1 (stereo not drawn) [Compound 6, 2-amino-3-[4-(4-hydroxycarbamoylphenoxy)-phenyl]-propionic acid benzyl ester hydrochloric acid salt]
inhibition at 10 µM (IL-12; Macrophage, LPS stimulated mouse spleenic macrophages, 10 μM, read-out: Mice Spleen Cells (% Inhibition) IL-12): 80% | IL-12 production (IL-12; mouse splenic macrophages stimulated with LPS for 72 hrs): strongly inhibited IL-12 production | inhibition at 50 mg/kg (TNF-α [1]): 50% | inhibition at 50 mg/kg (IL-6 [2]): 30% | inhibition at 10 µM (TNF-α [3]): 69.6% | inhibition at 10 µM (T cell proliferation; Anti CD3 Abs induced, read-out: Inhibition of T cell proliferation, Anti CD3 Abs): < 80% | inhibition at 10 µM (T cell proliferation; CON A induced, read-out: Inhibition of T cell proliferation, CON A): 61 to 80% | inhibition at 10 µM (T cell proliferation; IL-2 induced, read-out: Inhibition of T cell proliferation, IL-2): 61 to 80% | inhibition at 10 µM (T cell proliferation; IL-4 induced, read-out: Inhibition of T cell proliferation, IL-4): 61 to 80% | inhibition at 10 µM (T cell proliferation; KLH specific, lymph nodes of KLH immunized SJL mice, read-out: Inhibition of T cell proliferation, KLH Specific): < 80% | inhibition at 10 µM (IL-1β): 73% | inhibition at 10 µM (IL-6 [4]): 97% | inhibition at 10 µM (nitric oxide): 20% | arthritic scores [5]: significantly improved the arthritic scores | inhibition at 10 µM (TNF-α [6]): 20% | inhibition at 10 µM (TNF-α [7]): 92%
